Measurements as given in patent publication US6730295B2, “Anionic polymers as species specific antibacterial agents” (Genzyme Corporation, priority 2000, dated 2004).

Legend:
Test in all cases: MIC assay (NCCLS broth microdilution)
Format in all cases: cell-based
N. meningitidis = conditions: species 5 = N. meningitidis; 18-24 hr at 35° C., Mueller-Hinton broth
Procedure: (§1) The minimum inhibitory concentration (MIC) assay is performed according to the Performance Standards for Antimicrobial Susceptibility Testing, 1998, vol. M 100-S8, Eighth Informational Supplement, NCCLS, 940 West Valley Road, Suite 1400, Wayne, Pa. 19087.
(§2) Polymers to be tested were dissolved in 0.85% saline to a final concentration of either 830 or 1000 μg/ml, the pH was adjusted to 7.0 and the solution was filter-sterilized through a 0.22 μm filter. Two-fold serial dilutions of polymer were prepared in Mueller-Hinton broth with cations aliquotted into 96-well microtiter plates. The plates were then inoculated with […] of target organism, and incubated 18-24 hr at 35° C. The optical density (OD) was then read at 590 nm, and microorganism growth was scored (OD >0.1 is considered to be growth; OD <0.1 is considered growth inhibition). The MIC value was defined as the lowest concentration of compound which inhibits growth.

E. Faecium = conditions: species 2 = E. Faecium; 18-24 hr at 35° C., Mueller-Hinton broth
Procedure: as §1, §2

S. pneumoniae = conditions: species 4 = S. pneumoniae; 18-24 hr at 35° C., Mueller-Hinton broth
Procedure: as §1, §2

S. sanguis = conditions: species 3 = S. sanguis; 18-24 hr at 35° C., Mueller-Hinton broth
Procedure: as §1, §2

Branhamella catarrhalis = conditions: species 6 = Branhamella catarrhalis; 18-24 hr at 35° C., Mueller-Hinton broth
Procedure: as §1, §2

E. coli = conditions: species 1 = E. coli; 18-24 hr at 35° C., Mueller-Hinton broth
Procedure: as §1, §2

minimum inhibitory concentration (MIC) (N. meningitidis): 28
minimum inhibitory concentration (MIC) (E. Faecium): >83
minimum inhibitory concentration (MIC) (S. pneumoniae): 28
minimum inhibitory concentration (MIC) (S. sanguis): 28
minimum inhibitory concentration (MIC) (Branhamella catarrhalis): 9
minimum inhibitory concentration (MIC) (E. coli): >83
Structure (SMILES): CCCCCCCCCCCCOS(=O)(=O)[O-].[Na+] [sodium dodecyl sulfate]
